“Also recorded” adds a separate entry of the source.
Tests used:
[1] = tested on: endogenous caspases-3, 7, 9 and exogenous recombinant caspase-8 in 293 extracts; assay: Labeling in 293 extracts with exogenous recombinant caspase-8 and cytochrome c/dATP; format: binding
Description: (a.) Hypotonic 293 cytosolic extracts were induced to undergo intrinsic apoptosis by addition of cytochrome c/dATP. […] Samples were analyzed by SDS-PAGE followed by biotin blotting using streptavidin-HRP. (b) The identity of individual caspases was confirmed via immunoprecipitation using specific anti-sera for caspases-3, 7 and 9 (also see FIG. 5B for immunoprecipitation of caspases-3 and 7 after KMB01 labeling). Extracts (293) were activated with cytochrome c/dATP for 10 minutes, labeled by addition of indicated probes (100 nM final concentration for bAB06 and bAB13 and 10 μM final concentration for KMB01) and labeled caspases precipitated using specific anti-sera as described in the Methods section. I is input, P is pellet, S is supernatant after specific precipitation. […] Labeling of caspases was monitored by SDS-PAGE followed by biotin blotting with streptavidin-HRP. […]
Selective labeling of endogenous caspases in cell extracts and live cells with active site probes was carried out as follows: Hypotonic 293 cytosolic extracts were induced to undergo intrinsic apoptosis by addition of cytochrome c/dATP. […] Samples were analyzed by SDS-PAGE followed by biotin blotting using streptavidin-HRP. […] Labeling of caspases was monitored by SDS-PAGE followed by biotin blotting with streptavidin-HRP. […]
Protein concentration of hypotonic extracts was measured using a standard Bradford Protein Assay (BioRad). […]

[2] = tested on: caspase-3, caspase-6, caspase-7, caspase-8, caspase-9; conditions: Kato et al., 2005; cited from earlier work
[3] = tested on: endogenous caspases in intact Jurkat cells; assay: Direct labeling of endogenous caspase activity in live Jurkat cells; format: cell-based; conditions: anti-Fas or etoposide 15 h, probe 2 h; KMB01, bAB19 10 μM; bAB06, bAB13 1 μM
[4] = biological target: T1, caspase-9 in 293 extracts (Homo sapiens, UniProt P55211); assay: Intrinsic apoptosis assay in 293 extracts, KMB01 labeling of caspase-9; format: biochemical
T1 construct: endogenous in cells
T1 sequence (P55211 1-315 limits assumed): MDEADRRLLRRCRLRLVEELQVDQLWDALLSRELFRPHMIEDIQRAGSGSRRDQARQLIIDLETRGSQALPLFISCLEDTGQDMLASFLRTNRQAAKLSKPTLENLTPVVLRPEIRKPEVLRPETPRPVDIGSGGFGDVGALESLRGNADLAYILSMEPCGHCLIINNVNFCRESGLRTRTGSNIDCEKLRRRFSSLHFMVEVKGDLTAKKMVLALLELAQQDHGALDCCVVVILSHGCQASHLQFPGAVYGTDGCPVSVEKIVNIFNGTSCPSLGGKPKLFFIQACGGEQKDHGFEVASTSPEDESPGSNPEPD
T1 sequence (P55211 331-416 limits assumed): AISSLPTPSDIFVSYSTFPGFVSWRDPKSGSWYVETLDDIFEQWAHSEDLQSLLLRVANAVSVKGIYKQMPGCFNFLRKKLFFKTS
T1 sequence (O14727 whole entry partner): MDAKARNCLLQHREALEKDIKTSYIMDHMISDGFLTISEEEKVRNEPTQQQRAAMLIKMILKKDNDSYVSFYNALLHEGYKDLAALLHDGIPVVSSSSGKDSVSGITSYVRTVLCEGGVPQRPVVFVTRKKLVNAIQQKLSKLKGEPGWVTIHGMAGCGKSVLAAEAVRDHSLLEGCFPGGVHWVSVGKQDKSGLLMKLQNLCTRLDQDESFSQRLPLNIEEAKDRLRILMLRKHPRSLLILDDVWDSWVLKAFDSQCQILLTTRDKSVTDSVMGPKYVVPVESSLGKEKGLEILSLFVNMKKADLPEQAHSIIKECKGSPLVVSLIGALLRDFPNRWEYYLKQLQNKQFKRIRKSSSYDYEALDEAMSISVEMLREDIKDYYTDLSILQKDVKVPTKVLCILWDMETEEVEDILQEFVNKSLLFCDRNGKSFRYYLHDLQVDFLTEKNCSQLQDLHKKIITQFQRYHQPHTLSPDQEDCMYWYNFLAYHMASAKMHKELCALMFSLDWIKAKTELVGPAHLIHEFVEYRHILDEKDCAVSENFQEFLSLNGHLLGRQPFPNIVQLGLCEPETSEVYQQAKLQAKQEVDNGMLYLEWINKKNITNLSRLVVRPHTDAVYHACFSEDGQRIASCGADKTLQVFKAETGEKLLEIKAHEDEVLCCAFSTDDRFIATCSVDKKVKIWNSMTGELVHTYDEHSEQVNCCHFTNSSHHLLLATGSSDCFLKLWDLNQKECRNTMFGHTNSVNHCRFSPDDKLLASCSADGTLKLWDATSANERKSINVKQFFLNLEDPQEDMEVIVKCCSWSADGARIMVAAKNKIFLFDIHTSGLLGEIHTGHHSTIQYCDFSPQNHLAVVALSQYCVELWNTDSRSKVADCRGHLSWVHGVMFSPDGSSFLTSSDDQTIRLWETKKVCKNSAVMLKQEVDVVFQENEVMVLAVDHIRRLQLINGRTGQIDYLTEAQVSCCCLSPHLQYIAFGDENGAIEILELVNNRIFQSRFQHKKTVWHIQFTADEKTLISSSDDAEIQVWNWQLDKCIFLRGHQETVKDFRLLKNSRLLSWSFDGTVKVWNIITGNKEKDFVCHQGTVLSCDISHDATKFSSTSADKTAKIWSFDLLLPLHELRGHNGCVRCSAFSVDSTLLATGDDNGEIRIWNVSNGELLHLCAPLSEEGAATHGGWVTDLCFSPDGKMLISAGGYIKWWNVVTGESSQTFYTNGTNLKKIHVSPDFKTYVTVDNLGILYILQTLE
T1 sequence (P99999 2-105 partner limits assumed): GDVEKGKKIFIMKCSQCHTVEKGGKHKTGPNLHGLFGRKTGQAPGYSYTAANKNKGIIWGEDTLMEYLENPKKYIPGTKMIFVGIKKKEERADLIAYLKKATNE
Source text: To further confirm our assignment of the labeled species we treated samples at various activation times with purified recombinant Bir3 domain of XIAP. This polypeptide specifically binds to and inhibits caspase-9 but not caspase-3 or 7. […] We cannot rule out the possibility that p33 caspase-9 is the result of cleavage by some other protease or itself after it has already been labeled by KMB01 or inhibited by Bir3.
Profiling of caspase activity in 293 extracts that had been treated with AB06 at the same time as cytochrome c/dATP confirmed the selectivity of our inhibitor. […]
To confirm that our inhibitor AB06 was not reducing caspase 9 activity resulting in slow processing of caspase-7 and accumulation of a partially processed intermediate we treated extracts with a range of AB06 concentrations and monitored caspase-9 inhibition at various time points after cytochrome c/dATP addition. […]
Hypotonic 293 or MCF-7 extracts (4.7 μg/μl total protein concentration; 73 μg of total protein per time point) were activated by addition of cytochrome c (100 uM final) and dATP (1 mM final) for a range of times from 0-240 minutes as indicated. […] A portion (13.5 μg total protein) from each time point was analyzed by SDS-PAGE using 10-20% gradient gels followed by blotting for biotin as described above. […]

| Compound | labeling of caspases in 293 extracts with added caspase-8 ([1]; recombinant caspase-8 100 nM, cytochrome c/dATP, probes 10 μM, 30 min) | labeling of caspases by probe [2] | labeling of endogenous caspases in intact cells [3] | inhibition of caspases in 293 extracts with added caspase-8 ([1]; AB06 10 μM added in conjunction with cytochrome c/dATP) | KMB01 labeling of processed forms of caspase-9 and precursor forms of caspase-7 ([4]; AB06 added at the same time as cytochrome c/dATP) | cross reactivity with caspase-9 ([4]; range of AB06 concentrations, as high as 10 μM for up to 30 minutes) |
| --- | --- | --- | --- | --- | --- | --- |
| Bio-EVD-AOMK [KMB01, reference compound] | strong labeling of the endogenous caspases-3, 7, and 9 as well as the exogenously added caspase-8 | robust labeling of caspase-9 as well as caspase-3, caspase-7 and caspase-8 | robust labeling of downstream caspases-3 and 7; also recorded: did not show labeling of caspase-9 |  |  |  |
| Cc1cccc(C)c1C(=O)OCC(=O)[C@H](CC(=O)O)NC(=O)[C@@H](NC(=O)[C@H](Cc1ccncc1)NC(=O)[C@H](CC(=O)O)NC(=O)Cc1ccc(O)c([N+](=O)[O-])c1)C(C)C [AB06, Np-D-3-V-D-DMBA] |  |  |  | caspases-3 and 7 were selectively inhibited | unaltered | lack of cross reactivity |

— patent US20100068150A1, “Selective Caspase Inhibitors” (The Board of Trustees of the Leland Stanford Junior …, priority 2006, published 2010)
